Assay results: patent US11247982B2, “NMDA receptor modulators, compositions comprising same and use of these compounds in the treatment of diseases involving the central nervous system” (ADPUERIVITAM, priority 2017, dated 2022)

Tested on: NMDA receptors
Assay: Whole-cell patch-clamp of NMDA currents in cultured rat embryonic hippocampal neurons
Type: cell-based
Conditions: for A. NMDA current: Summary: 10 μM test compound; for C. Channel closing kinetics: T run-down (ms) / C. Channel closing kinetics: Tau (s) / D. Desensitization: Slope (pA/s) / C. Channel closing kinetics: Max slope (pA/s) / B. Channel opening kinetics: Min slope (pA/s) / C. Channel closing kinetics: Run down slope (pA/s) / B. Channel opening kinetics: Run-up slope (pA/s) / B. Channel opening kinetics: T run-up (ms) / B. Channel opening kinetics: Time to peak (ms): 10 μM test compound vs NMDA alone; for C. Channel closing kinetics: T run-down (ms): closing time between 90% and 10% of max current; for C. Channel closing kinetics: T run-down (ms) / C. Channel closing kinetics: Tau (s) / D. Desensitization: Slope (pA/s) / C. Channel closing kinetics: Max slope (pA/s) / B. Channel opening kinetics: Min slope (pA/s) / C. Channel closing kinetics: Run down slope (pA/s) / B. Channel opening kinetics: Run-up slope (pA/s) / B. Channel opening kinetics: T run-up (ms) / B. Channel opening kinetics: Time to peak (ms) / A. NMDA current: Width 50 (ms) / A. NMDA current: Peak area (pA · s): (n) = cells; for C. Channel closing kinetics: Tau (s): closing time of 50% of the channels (half-life); for D. Desensitization: Slope (pA/s): desensitization speed during the application of NMDA; for C. Channel closing kinetics: Max slope (pA/s): greatest closing speed; for B. Channel opening kinetics: Min slope (pA/s): greatest opening speed; for C. Channel closing kinetics: Run down slope (pA/s): mean closing speed during T run-down; for B. Channel opening kinetics: Run-up slope (pA/s): mean opening speed during T run-up; for B. Channel opening kinetics: T run-up (ms): opening time between 10% and 90% of max current; for B. Channel opening kinetics: Time to peak (ms): time to reach the maximum current; for A. NMDA current: Width 50 (ms) / A. NMDA current: Peak area (pA · s) / A. NMDA current: Height (pA): 10 μM test compound with 100 μM NMDA + 5 μM L-glycine vs NMDA alone; for A. NMDA current: Width 50 (ms): duration of current above 50% of Height; for A. NMDA current: Peak area (pA · s): total current integrated over time; for A. NMDA current: Height (pA): −60 mV, maximum current, (n) = number of cells; for A. NMDA current: Washable / B. Channel opening kinetics: Washable / C. Channel closing kinetics: Washable / D. Desensitization: Washable: persistence of effect, NMDA wash vs NMDA + test compound
Method: Female Wistar rats in gestation with 17-day-old embryos (E17) were obtained from Janvier Labs. On the day of receipt of the animals, the rat is sacrificed and the embryos are dissected under sterile conditions to remove their brain, which is then micro-dissected in GBSS (Gey's balanced salt solution) medium to obtain the hippocampus from the two hemispheres, while discarding the meninges. The tissues harvested from at least five embryos are placed in 2 ml of DMEM medium (registered trademark) (Dulbecco's modified Eagle's medium—from Life Technologies) with 2% of fetal calf serum, 2 mM of glutamine, 0.1 mg/mL of penicillin-streptomycin antibiotic mixture (Life Technologies) and subjected to mechanical dissociation of the cells by passing through round-ended glass pipettes with an inside diameter decreasing from 0.5 to 0.2 mm. The cells are counted and 100 μl of suspension containing 25×10^3 cells are placed on a glass slide coated with polylysine (poly-D-lysine hydrobromide from 75 to 150 kDa, from Sigma) of Ø 12 mm, in 12-well culture plates and incubated for 2 hours at 37° C. under an atmosphere containing 5% of CO2 to allow cell adhesion. A volume of 2 mL of culture medium is added gently: Neurobasal (registered trademark) with 1/50 (v:v) serum-free supplement B-27® (Life Technologies), 2 mM of glutamine, 0.1 mg/ml of penicillin-streptomycin antibiotic mixture (from Life Technologies), and incubation is again performed under the same conditions. Half of the medium is replaced twice a week for maintenance. The neuronal cells will be able to differentiate over a period of 12 to 30 days. The cultures are monitored by phase-contrast microscopy: the extension of the neurites and of the synaptic connections is observed for the neurons, which represent the majority of the cells, while a few astrocytes are also present.
The electrophysiology post consists of an Olympus IMT-2 model inverted phase-contrast microscope placed on a TMC antivibration table in a Faraday cage. The installation also comprises an SF-77B model Warner multichannel perfusion system, a Burleigh PCS-5000 model 3D-micromanipulator system holding the microelectrode probe, a Warner PC-505 model patch-clamp amplifier and a PowerLab 8/35 model 8-channel analog-digital interface from ADInstruments. The glass microelectrode is manufactured with thin-walled borosilicate capillary tubes (1.5 OD×1.17 ID×100 L mm, from Harvard Apparatus) and prepared with the Narishige PC10 model vertical electrode puller to obtain an electrical resistance of about 5 MOhm. The electrode of the pipette is filled with the intracellular medium composed of (in mM): 100 CsF, 40 CsCl, 1.2 CaCl2, 20 HEPES, 10 EGTA, pH=7.4 (adjusted with CsOH).
The culture on its slide is placed in a 60 mm Petri dish with 2 ml of extracellular medium composed of (in mM): 140 NaCl, 5 KCl, 1.2 CaCl2, 1.5 MgCl2, 12 HEPES, 12 Na-HEPES, 33 glucose, pH=7.4.
The neuron selected is patched in the whole cell configuration. The maintenance potential is set at −60 mV.
The assembled glass microtubes of square cross section of the perfusion system each provide a stable stream of different composition. The “TTX” default medium corresponds to the extracellular medium to which is added 1 μM tetrodotoxin. The “NMDA” application medium is “TTX” supplemented with 100 μM of NMDA (N-methyl-D-aspartate) as agonist, and 5 μM of L-glycine as co-agonist. The “NMDA+ test compound” medium corresponds to the “NMDA” supplemented with 10 μM of the test compound. The “NMDA wash” is identical to the “NMDA” medium.
As a general rule, three applications of each test compound are performed on the patched cell, for 2 seconds at intervals of 3 minutes (to allow inversion of desensitization). The sequence of the applications is: 1) “NMDA”, 2) “NMDA+ test compound”, 3) “NMDA wash”. The “TTX” medium is applied by default, before and after each application of test compound. […]

Compound	A. NMDA current: Summary	C. Channel closing kinetics: T run-down (ms)	C. Channel closing kinetics: Tau (s)	D. Desensitization: Slope (pA/s)	C. Channel closing kinetics: Max slope (pA/s)	B. Channel opening kinetics: Min slope (pA/s)	C. Channel closing kinetics: Run down slope (pA/s)	B. Channel opening kinetics: Run-up slope (pA/s)	B. Channel opening kinetics: T run-up (ms)	B. Channel opening kinetics: Time to peak (ms)	A. NMDA current: Width 50 (ms)	A. NMDA current: Peak area (pA · s)	A. NMDA current: Height (pA)	A. NMDA current: Washable	B. Channel opening kinetics: Washable	C. Channel closing kinetics: Washable	D. Desensitization: Washable	antagonistic effect on the maximum current amplitude (concentration of less than 1 μM)
O=C(C[C@]1(O)C(=O)N(CCc2c[nH]c3ccccc23)c2ccccc21)c1ccccc1F [Molecule 3]	Antagonist (2+)	2 ± 4% (13)	17 ± 5 (13) %	−43 ± 8% (13)	−22 ± 4% (13)	−22 ± 4 (13) %	−30 ± 8% (13)	−23 ± 5% (13)	−8 ± 6% (13)	−5 ± 3% (13)	−10 ± 7% (13)	−16 ± 8% (13)	−24 ± 7% (13)	(No/Yes)	(Yes/No)	No	No	–
O=C(C[C@]1(O)C(=O)N(CCc2c[nH]c3ccccc23)c2ccccc21)c1ccccc1Cl [Molecule 2]	Antagonist (6+)	−15 ± 5% (7)	44 ± 28% (7)	−70 ± 17% (7)	−28 ± 8% (7)	−25 ± 9% (7)	−63 ± 13% (7)	−61 ± 10% (7)	−16 ± 13% (7)	−7 ± 4% (7)	−49 ± 14% (7)	−65 ± 13% (7)	−66 ± 10% (7)	Yes	(Yes/No)	(Yes/No)	(Yes)	–
Cc1ccc2[nH]c(=O)c(C3=NN(C(=O)CCC(=O)O)C(c4ccc(Br)cc4)C3)c(-c3ccccc3)c2c1 (stereo not shown) [DQP1105, reference compound]	–	–	–	–	–	–	–	–	–	–	–	–	–	–	–	–	–	maintained at the same level
O=C(C[C@]1(O)C(=O)N(CCc2c[nH]c3ccccc23)c2ccccc21)c1cccc(Cl)c1 [Molecule 1]	Antagonist (4+)	12 ± 6% (7)	29 ± 13% (6)	−59 ± 8% (7)	−27 ± 10% (7)	−35 ± 12% (7)	−48 ± 8% (7)	−45 ± 7% (7)	3 ± 3% (7)	1 ± 4% (7)	0 ± 9% (7)	−37 ± 12% (7)	−43 ± 8% (7)	No	No	No	No	–
